Patent US9822131B2, “Certain chemical entities, compositions and methods” (Intellikine LLC, priority 2008, dated 2017)
Read-outs that look alike come from different tables or passages of the source.

Experiments:
[1] = target: T1, PI3K γ (Homo sapiens, UniProt P48736); test: PI3K γ in vitro kinase inhibition assay; format: biochemical
T1 construct: purchased Sigma
Method: (§1) IC50 values are measured using either a standard TLC assay for lipid kinase activity (described below) or a high-throughput membrane capture assay. Kinase reactions are performed by preparing a reaction mixture containing kinase, inhibitor (2% DMSO final concentration), buffer (25 mM HEPES, pH 7.4, 10 mM MgCl2), and freshly sonicated phosphatidylinositol (100 μg/ml). Reactions are initiated by the addition of ATP containing 10 μCi of γ-32P-ATP to a final concentration 10 or 100 μM and allowed to proceed for 5 minutes at room temperature. For TLC analysis, reactions are then terminated by the addition of 105 μl 1N HCl followed by 160 μl CHCl3:MeOH (1:1). The biphasic mixture is vortexed, briefly centrifuged, and the organic phase is transferred to a new tube using a gel loading pipette tip precoated with CHCl3. This extract is spotted on TLC plates and developed for 3-4 hours in a 65:35 solution of n-propanol:1M acetic acid. The TLC plates are then dried, exposed to a phosphorimager screen (Storm, Amersham), and quantitated.
(§2) Briefly, the assay is a time resolved FRET assay that indirectly measures PIP3 product formed by the activity of a PI3-K. The kinase reaction is performed in a microtiter plate (e.g., a 384 well microtiter plate). The total reaction volume is approximately 20 ul per well. In the first step, each well receives 2 ul of test compound in 20% dimethylsulphoxide resulting in a 2% DMSO final concentration. Next, approximately 14.5 ul of a kinase/PIP2 mixture (diluted in 1× reaction buffer) is added per well for a final concentration of 0.25-0.3 ug/ml kinase and 10 uM PIP2. […] To start the reaction, 3.5 ul of ATP (diluted in 1× reaction buffer) is added per well for a final concentration of 10 uM ATP. The plate is sealed and incubated for 1 hour at room temperature. The reaction is stopped by adding 5 ul of Stop Solution per well and then 5 μl of Detection Mix is added per well. The plate is sealed, incubated for 1 hour at room temperature, and then read on an appropriate plate reader. Data is analyzed and IC50s are generated using GraphPad Prism 5.

[2] = target: T2, PI3K δ (Homo sapiens, UniProt O00329); test: PI3K δ in vitro kinase inhibition assay; format: biochemical
T2 construct: purchased Upstate
T2 sequence (O00329 whole entry): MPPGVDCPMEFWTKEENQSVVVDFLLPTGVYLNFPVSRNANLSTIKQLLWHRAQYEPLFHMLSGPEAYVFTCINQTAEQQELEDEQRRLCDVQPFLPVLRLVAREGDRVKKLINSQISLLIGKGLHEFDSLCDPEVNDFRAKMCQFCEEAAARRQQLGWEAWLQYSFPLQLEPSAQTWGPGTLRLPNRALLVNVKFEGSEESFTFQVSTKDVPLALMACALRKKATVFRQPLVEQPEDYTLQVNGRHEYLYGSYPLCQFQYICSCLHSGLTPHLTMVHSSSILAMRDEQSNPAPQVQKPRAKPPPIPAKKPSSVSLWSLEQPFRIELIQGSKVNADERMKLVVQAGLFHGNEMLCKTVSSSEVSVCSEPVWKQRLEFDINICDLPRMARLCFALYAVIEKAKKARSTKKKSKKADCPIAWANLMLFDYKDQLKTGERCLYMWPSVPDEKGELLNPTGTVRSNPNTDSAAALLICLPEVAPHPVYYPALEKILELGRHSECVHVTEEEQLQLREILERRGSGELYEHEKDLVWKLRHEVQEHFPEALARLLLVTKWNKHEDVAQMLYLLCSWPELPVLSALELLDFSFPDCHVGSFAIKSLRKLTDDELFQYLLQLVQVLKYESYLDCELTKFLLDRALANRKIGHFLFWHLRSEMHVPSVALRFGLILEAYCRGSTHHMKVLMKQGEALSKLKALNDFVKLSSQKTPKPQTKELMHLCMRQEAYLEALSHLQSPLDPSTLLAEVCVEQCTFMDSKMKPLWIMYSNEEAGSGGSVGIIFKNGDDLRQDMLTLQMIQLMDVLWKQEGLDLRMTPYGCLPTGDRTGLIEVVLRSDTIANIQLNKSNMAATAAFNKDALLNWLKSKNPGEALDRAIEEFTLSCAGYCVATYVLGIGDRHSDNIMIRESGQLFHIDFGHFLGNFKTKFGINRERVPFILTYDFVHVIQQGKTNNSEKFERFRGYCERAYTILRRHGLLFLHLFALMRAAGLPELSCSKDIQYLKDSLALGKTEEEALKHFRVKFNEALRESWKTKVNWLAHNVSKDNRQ
T2 sequence (P27986 whole entry partner): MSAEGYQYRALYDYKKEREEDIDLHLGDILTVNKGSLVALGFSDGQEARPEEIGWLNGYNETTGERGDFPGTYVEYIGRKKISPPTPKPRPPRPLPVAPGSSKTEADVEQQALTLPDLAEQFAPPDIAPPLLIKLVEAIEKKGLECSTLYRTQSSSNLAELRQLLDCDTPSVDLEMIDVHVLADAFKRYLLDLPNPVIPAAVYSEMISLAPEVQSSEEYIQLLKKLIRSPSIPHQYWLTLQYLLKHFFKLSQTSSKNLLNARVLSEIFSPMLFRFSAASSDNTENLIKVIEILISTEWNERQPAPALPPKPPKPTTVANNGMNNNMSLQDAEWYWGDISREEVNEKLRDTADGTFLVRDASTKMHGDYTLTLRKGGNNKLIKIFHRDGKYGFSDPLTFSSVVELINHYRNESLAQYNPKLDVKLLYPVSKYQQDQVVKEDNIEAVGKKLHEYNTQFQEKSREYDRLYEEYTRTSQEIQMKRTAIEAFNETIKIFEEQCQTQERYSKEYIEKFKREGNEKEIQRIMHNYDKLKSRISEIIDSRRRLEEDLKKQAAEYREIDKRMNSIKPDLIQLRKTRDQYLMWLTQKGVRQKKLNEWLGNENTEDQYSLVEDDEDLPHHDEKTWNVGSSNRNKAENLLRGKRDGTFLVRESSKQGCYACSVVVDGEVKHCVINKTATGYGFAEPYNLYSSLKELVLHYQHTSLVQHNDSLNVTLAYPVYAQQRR
Method: as §1, §2

[3] = system: Balb/c splenic B cells; test: B cell activation and proliferation assay (Alamar Blue); format: cell-based; details: Mus musculus
Method: The assay is performed in a 96 well microtiter plate using Alamar Blue reduction. Balb/c splenic B cells are purified over a Ficoll-Paque™ PLUS gradient followed by magnetic cell separation using a MACS B cell Isolation Kit (Miletenyi). Cells are plated in 90 ul at 50,000 cells/well in B Cell Media (RPMI+10% FBS+Penn/Strep+50 uM bME+5 mM HEPES). A compound disclosed herein is diluted in B Cell Media and added in a 10 ul volume. Plates are incubated for 30 min at 37 C and 5% CO2 (0.2% DMSO final concentration). A 50 ul B cell stimulation cocktail is then added containing either 10 ug/ml LPS or 5 ug/ml F(ab′)2 Donkey anti-mouse IgM plus 2 ng/ml recombinant mouse IL4 in B Cell Media. […] A volume of 15 uL of Alamar Blue reagent is added to each well and plates are incubated for 5 hours at 37 C and 5% CO2. Alamar Blue fluoresce is read at 560Ex/590Em, and IC50 or EC50 values are calculated using GraphPad Prism 5.

[4] = target: T3, PI3K β (Homo sapiens, UniProt P42338); test: PI3K β in vitro kinase inhibition assay; format: biochemical
T3 construct: purchased Upstate
T3 sequence (P42338 whole entry): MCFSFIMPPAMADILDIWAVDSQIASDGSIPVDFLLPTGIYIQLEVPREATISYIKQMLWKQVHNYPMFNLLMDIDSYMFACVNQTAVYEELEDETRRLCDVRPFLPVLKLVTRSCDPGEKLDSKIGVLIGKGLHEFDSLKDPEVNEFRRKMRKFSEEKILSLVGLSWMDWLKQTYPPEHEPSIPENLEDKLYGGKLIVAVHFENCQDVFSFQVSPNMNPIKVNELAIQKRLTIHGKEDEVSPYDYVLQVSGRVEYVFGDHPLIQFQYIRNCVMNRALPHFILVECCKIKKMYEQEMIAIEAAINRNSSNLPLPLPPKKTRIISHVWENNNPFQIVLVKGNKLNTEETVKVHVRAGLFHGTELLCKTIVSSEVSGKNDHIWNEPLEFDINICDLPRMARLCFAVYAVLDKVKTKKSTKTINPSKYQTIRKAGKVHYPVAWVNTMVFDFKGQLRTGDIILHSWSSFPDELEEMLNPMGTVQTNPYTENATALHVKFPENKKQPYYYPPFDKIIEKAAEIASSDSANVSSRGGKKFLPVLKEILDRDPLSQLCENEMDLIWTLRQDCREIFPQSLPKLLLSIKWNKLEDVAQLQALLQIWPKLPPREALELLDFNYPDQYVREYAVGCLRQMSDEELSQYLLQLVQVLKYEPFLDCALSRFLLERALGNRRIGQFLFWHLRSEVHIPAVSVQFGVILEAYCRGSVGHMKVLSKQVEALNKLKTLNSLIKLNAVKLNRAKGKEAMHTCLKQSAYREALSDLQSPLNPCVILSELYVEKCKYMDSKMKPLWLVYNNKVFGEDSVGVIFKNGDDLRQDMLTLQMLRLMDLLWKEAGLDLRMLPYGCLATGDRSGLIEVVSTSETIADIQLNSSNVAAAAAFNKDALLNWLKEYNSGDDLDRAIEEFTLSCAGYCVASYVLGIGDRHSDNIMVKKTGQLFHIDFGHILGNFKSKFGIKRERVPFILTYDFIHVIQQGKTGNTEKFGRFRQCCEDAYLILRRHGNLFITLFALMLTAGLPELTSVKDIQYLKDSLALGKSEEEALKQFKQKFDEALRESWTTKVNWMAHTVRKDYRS
T3 sequence (P27986 whole entry partner): as the sequence (P27986 whole entry partner) above
Method: as §1, §2

[5] = target: T4, PI3K α (Homo sapiens, UniProt P42336); test: PI3K α in vitro kinase inhibition assay; format: biochemical
T4 construct: purchased Upstate
T4 sequence (P42336 whole entry): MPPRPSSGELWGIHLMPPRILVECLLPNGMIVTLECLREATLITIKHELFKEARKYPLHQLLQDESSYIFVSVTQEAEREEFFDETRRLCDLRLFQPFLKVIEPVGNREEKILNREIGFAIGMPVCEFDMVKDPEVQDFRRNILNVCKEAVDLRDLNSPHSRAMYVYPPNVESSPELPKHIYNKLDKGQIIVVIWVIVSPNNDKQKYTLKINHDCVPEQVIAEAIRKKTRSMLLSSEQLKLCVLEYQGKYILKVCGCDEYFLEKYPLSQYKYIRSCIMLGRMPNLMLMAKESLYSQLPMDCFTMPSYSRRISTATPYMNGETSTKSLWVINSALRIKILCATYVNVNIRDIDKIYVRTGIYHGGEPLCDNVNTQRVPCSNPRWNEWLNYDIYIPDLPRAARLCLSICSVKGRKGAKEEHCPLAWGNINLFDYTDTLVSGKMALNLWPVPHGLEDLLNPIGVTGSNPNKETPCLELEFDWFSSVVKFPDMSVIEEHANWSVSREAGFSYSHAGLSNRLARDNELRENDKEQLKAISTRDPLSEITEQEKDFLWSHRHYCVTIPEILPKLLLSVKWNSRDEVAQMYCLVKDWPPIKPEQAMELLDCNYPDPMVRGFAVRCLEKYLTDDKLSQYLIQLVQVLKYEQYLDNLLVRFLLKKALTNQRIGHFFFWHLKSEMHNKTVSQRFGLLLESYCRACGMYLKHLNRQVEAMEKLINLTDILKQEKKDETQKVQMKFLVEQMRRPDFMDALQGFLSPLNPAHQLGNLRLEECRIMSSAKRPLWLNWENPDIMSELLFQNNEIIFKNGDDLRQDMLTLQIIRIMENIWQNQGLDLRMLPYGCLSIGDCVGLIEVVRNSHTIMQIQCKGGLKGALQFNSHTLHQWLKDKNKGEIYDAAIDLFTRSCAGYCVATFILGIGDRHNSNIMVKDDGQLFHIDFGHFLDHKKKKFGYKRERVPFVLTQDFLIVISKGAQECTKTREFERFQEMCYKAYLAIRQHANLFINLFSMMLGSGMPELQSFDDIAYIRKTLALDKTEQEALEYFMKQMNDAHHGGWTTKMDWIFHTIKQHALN
T4 sequence (P27986 whole entry partner): as the sequence (P27986 whole entry partner) above
Method: as §1, §2

[6] = read-out: B cell proliferation EC50

T1 sequence (P48736 whole entry): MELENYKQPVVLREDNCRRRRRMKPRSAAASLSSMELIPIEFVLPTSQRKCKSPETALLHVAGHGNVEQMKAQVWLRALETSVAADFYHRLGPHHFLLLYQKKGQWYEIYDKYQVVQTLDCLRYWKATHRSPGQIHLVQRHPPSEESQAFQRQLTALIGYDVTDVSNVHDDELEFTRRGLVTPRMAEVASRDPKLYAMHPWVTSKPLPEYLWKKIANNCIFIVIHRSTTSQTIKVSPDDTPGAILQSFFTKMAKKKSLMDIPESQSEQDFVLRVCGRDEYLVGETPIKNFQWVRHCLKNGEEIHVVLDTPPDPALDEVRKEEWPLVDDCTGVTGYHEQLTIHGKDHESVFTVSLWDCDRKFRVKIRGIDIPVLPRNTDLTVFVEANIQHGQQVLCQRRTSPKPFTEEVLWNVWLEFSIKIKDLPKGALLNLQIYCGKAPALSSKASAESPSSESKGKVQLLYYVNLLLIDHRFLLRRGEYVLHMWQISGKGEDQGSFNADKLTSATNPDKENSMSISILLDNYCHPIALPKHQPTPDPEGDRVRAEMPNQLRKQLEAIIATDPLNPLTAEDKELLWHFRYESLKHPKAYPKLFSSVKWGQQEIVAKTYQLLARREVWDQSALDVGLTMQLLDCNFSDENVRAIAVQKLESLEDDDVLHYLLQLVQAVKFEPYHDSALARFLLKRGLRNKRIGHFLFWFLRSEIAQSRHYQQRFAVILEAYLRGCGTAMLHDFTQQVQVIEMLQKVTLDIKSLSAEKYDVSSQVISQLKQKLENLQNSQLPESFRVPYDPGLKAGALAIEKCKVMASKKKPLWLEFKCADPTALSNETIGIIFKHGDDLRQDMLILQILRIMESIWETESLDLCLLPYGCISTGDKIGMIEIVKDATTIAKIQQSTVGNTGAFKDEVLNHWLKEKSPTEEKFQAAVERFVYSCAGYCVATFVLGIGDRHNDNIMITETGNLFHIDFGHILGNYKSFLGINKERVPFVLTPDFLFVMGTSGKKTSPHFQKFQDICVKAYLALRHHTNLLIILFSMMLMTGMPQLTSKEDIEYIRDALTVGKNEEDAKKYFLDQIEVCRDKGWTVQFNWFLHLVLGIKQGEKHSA

Structure (SMILES) | IC50 [1] [µM] | IC50 [2] [µM] | EC50 [3, 6] [nM] | EC50 ([3]; read-out: B cell proliferation EC50 (nM)) [nM] | IC50 [4] [µM] | IC50 [5] [µM]
Cc1cccnc1-n1c(Cn2nc(I)c3c(N)ncnc32)cc2cccc(C)c2c1=O [Compound 92] | < 10 | < 10 |  |  |  | 
CC(=O)Nc1nc2ccc(-c3nn(Cc4cc5cccc(C)c5c(=O)n4C4CCC4)c4ncnc(N)c34)cc2s1 [Compound 159] |  |  | < 100 |  |  | 
Cc1ccccc1-n1c(Cn2nc(-c3cn[nH]c3)c3c(N)ncnc32)cc2cccc(C)c2c1=O [Compound 160] |  |  | < 100 |  |  | 
Cc1cccc2cc(Cn3nc(-c4cn[nH]c4)c4c(N)ncnc43)n(-c3ccccc3F)c(=O)c12 [Compound 161] |  |  | < 1000 |  |  | 
Cc1ccccc1-n1c(Cn2nc(-c3cnn(CCO)c3)c3c(N)ncnc32)cc2cccc(C)c2c1=O [Compound 163] |  |  | < 1000 |  |  | 
Cc1cccc2cc(Cn3nc(-c4cn[nH]c4)c4c(N)ncnc43)n(-c3cccc(F)c3)c(=O)c12 [Compound 166] |  |  | < 100 |  |  | 
Cc1cccc2cc(C(C)Nc3ncnc4[nH]cnc34)n(-c3ccccc3F)c(=O)c12 (stereo not drawn) [Compound 167] |  |  | < 100 |  |  | 
Cc1cccc2cc(Cn3nc(C#N)c4c(N)ncnc43)n(-c3ccccc3F)c(=O)c12 [Compound 169] |  |  |  | < 1000 |  | 
Cc1ccccc1-n1c(Cn2nc(C#N)c3c(N)ncnc32)cc2cccc(C)c2c1=O [Compound 170] |  |  | < 100 |  |  | 
Cc1cccc2cc(Cn3nc(/C=C4/SC(=O)NC4=O)c4c(N)ncnc43)n(-c3ccccc3F)c(=O)c12 [Compound 171] |  |  | < 100 |  |  | 
Cc1ccccc1-n1c(Cn2nc(/C=C3/SC(=O)NC3=O)c3c(N)ncnc32)cc2cccc(C)c2c1=O [Compound 173] |  |  | < 100 |  |  | 
Cc1ccccc1-n1c(Cn2nc(/C=C/C(N)=O)c3c(N)ncnc32)cc2cccc(C)c2c1=O [Compound 174] |  |  | < 100 |  |  | 
CCn1c(Cn2nc(-c3ccc4nc(NC(C)=O)sc4c3)c3c(N)ncnc32)cc2cccc(C)c2c1=O [Compound 176] |  |  | < 100 |  |  | 
CC(=O)Nc1nc2ccc(-c3nn(Cc4cc5cccc(C)c5c(=O)n4-c4ccccc4)c4ncnc(N)c34)cc2s1 [Compound 177] |  |  | < 100 |  |  | 
CC(=O)Nc1nc2ccc(-c3nn(Cc4cc5cccc(C)c5c(=O)n4-c4cccc(F)c4)c4ncnc(N)c34)cc2s1 [Compound 178] |  |  | < 100 |  |  | 
C=Cc1nn(Cc2cc3cccc(C)c3c(=O)n2-c2ccccc2C)c2ncnc(N)c12 [Compound 180] |  |  | < 100 |  |  | 
Cc1ccccc1-n1c(Cn2nc(I)c3c(N)ncnc32)nc2nccc(C)c2c1=O [Compound 199] | < 10 | < 1 | < 100 |  | > 10 | > 10
Cc1ccccc1-n1c(Cn2nc(-c3cc(O)cc(F)c3)c3c(N)ncnc32)nc2nccc(C)c2c1=O [Compound 200] | > 10 | < 1 | < 10000 |  | > 10 | > 10
Cc1ccccc1-n1c(Cn2nc(C#CC3CC3)c3c(N)ncnc32)nc2nccc(C)c2c1=O [Compound 202] | > 10 | < 1 | < 10000 |  | > 10 | > 10
Cc1ccccc1-n1c(Cn2nc(Cl)c3c(N)ncnc32)nc2nccc(C)c2c1=O [Compound 203] | < 10 | < 0.1 | < 1000 |  | > 10 | > 10

Structure (SMILES) | IC50 [1] [µM] | IC50 [2] [µM] | EC50 [3, 6] [nM] | EC50 ([3]; read-out: B cell proliferation EC50 (nM)) [nM] | IC50 [4] [µM] | IC50 [5] [µM]
Cc1ccccc1-n1c(Cn2nc(Br)c3c(N)ncnc32)nc2nccc(C)c2c1=O [Compound 204] | > 10 | < 0.1 | < 1000 |  | > 10 | > 10
Cc1ccnc2nc(Cn3nc(C#CC4CC4)c4c(N)ncnc43)n(-c3ccccc3Cl)c(=O)c12 [Compound 208] | > 10 | < 10 | < 10000 |  | > 10 | > 10
Cc1nn(Cc2nc3nccc(C)c3c(=O)n2-c2ccccc2F)c2ncnc(N)c12 [Compound 210] | > 10 | < 10 | < 10000 |  | > 10 | > 10
Cc1ccccc1-n1c(Cn2nc(-c3cccc(O)c3)c3c(N)ncnc32)nc2c(C)nn(C)c2c1=O [Compound 217] | > 10 | < 10 | < 10000 |  | > 10 | > 10
Cc1ccccc1N1C(=O)C2C(C=NN2C)N=C1Cn1nc(-c2cc(O)cc(F)c2)c2c(N)ncnc21 (stereo not drawn) [Compound 221] | > 10 | < 0.1 | < 1000 |  | > 10 | > 10
Cc1ccccc1-n1c(Cn2nc(C#CC3CC3)c3c(N)ncnc32)cc2nccc(C)c2c1=O [Compound 225] | > 10 | < 1 | < 1000 |  | > 10 | > 10
Cc1ccccc1-n1c(Cn2nc(-c3ccc(O)c(F)c3)c3c(N)ncnc32)cc2nccc(C)c2c1=O [Compound 226] | < 1 | < 0.1 | < 1000 |  | > 10 | > 10
Cc1ccnc2cc(Cn3nc(-c4cc(O)cc(F)c4)c4c(N)ncnc43)n(-c3ccccc3F)c(=O)c12 [Compound 231] | < 1 | < 0.1 | < 100 |  | > 10 | > 10
Cc1ccccc1-n1c(Cn2nc(Br)c3c(N)ncnc32)nc2snc(C)c2c1=O [Compound 239] | > 10 | < 1 |  |  | > 10 | > 10
Cc1ccccc1-n1c(Cn2nc(-c3cccc(O)c3)c3c(N)ncnc32)nc2snc(C)c2c1=O [Compound 241] | < 10 | < 1 |  |  | > 10 | > 10
Cc1ccccc1-n1c(Cn2nc(I)c3c(N)ncnc32)nc2scc(C)c2c1=O [Compound 242] | < 1 | < 0.1 | < 100 |  | > 10 | > 10
Cc1ccccc1-n1c(Cn2nc(C)c3c(N)ncnc32)nc2scc(C)c2c1=O [Compound 246] | < 0.1 | < 0.1 | < 1000 |  | > 10 | > 10
Cc1ccccc1-n1c(Cn2nc(-c3ccc(O)c(Cl)c3)c3c(N)ncnc32)nc2scc(C)c2c1=O [Compound 269] | < 0.1 | < 0.1 |  |  | < 10 | > 10
Cc1cccnc1-n1c(Cn2nc(Cl)c3c(N)ncnc32)nc2scc(C)c2c1=O [Compound 270] | < 10 | < 1 |  |  | > 10 | > 10
COc1ccccc1-n1c(Cn2nc(Br)c3c(N)ncnc32)nc2scc(C)c2c1=O [Compound 274] | < 1 | < 0.1 |  |  | > 10 | > 10
Cc1cc2c(=O)n(-c3ccccc3C)c(Cn3nc(Br)c4c(N)ncnc43)nc2s1 [Compound 285] | > 10 | < 10 |  |  | > 10 | > 10
Cc1cc2c(=O)n(-c3ccccc3C)c(Cn3nc(-c4cccc(O)c4)c4c(N)ncnc43)nc2s1 [Compound 294] | > 10 | < 10 |  |  | > 10 | > 10
Cc1ccccc1-n1c(Cn2nc(-c3cccc(O)c3)c3c(N)ncnc32)nc2sc(C)c(C)c2c1=O [Compound 299] | > 10 | < 1 |  |  | > 10 | > 10
Cc1ccccc1-n1c(Cn2nc(Br)c3c(N)ncnc32)nc2sc(C)c(C)c2c1=O [Compound 301] | > 10 | < 0.1 |  |  | > 10 | > 10
